Converted amounts (≈) assume the structure as drawn.
Legend:
[1] = test system: Rattus norvegicus; details: for NOAEL: clinical signs
[2] = test system: Tagia sp.
[3] = test system: Apis mellifera; details: acute; dermal; mortality
[4] = test system: Daphnia magna; details: chronic/long-term, duration: 21 days
[5] = test system: Bibionidae; details: chronic/long-term; duration: 28 days; other
[6] = test system: Oncorhynchus mykiss
[7] = test system: Colinus virginianus
[8] = test system: Adalia sp.; assay: LR50; higher = less toxic; details: acute; duration: 48 hours; mortality

## CC(C)[C@H](C(=O)O[C@H](C#N)c1cccc(Oc2ccccc2)c1)c1ccc(Cl)cc1 [Esfenvalerate]
[1]; acute
  NOAEL: 1.75 mg/kg-day
[1]; acute, oral, mortality
  LD50: 88.5 mg/kg
[1]; chronic
  NOAEL: 1.75 mg/kg-day
[2]; acute, mortality
  LC50: 10.6 mg/kg
[2]; chronic/long-term
  NOEC: 1.1 mg/kg
[3]
  LD50: 0.06 µg/piece
[4]
  NOEC: 0.052 µg/L
[4]; reproduction
  NOEC: 0.0038 µg/L
[5]
  NOEC: 0.16 µg/L
[6]; acute, duration: 96 hours, mortality
  LC50: 0.1 ng/mL (≈ 0.238 nM)
[6]; chronic/long-term, duration: 21 days
  NOEC: 0.001 µg/L
[7]; acute, oral, mortality
  LD50: 1310 mg/kg-day
[7]; reproduction developmental
  NOEC: 18.7 mg/kg-day
[8]
  LR50: 0.291 g/ha

From EPA's ToxValDB 9.5 (doi:10.2903/j.efsa.2014.3873)
